In patent US5210193A, “Piperazine derivatives” (American Cyanamid Company, priority 1990, dated 1993):
Converted amounts (≈) assume the structure as drawn.

Legend:
Assay in all cases: in vitro antibacterial MIC, agar plate dilution
Type in all cases: cell-based
[1] = system: Klebsiella pneumoniae MOR 84-4; settings: Klebsiella pneumoniae, MOR844, 18 h, 35° C., read-out: MIC
Protocol: (§1) The in vitro antimicrobial spectrum of the compounds of ths invention were determined by the agar plate dilution method with Mueller-Hinton agar and an inoculum of each test organism of approximately 10^4 colony forming units delivered by the Steers replicating device. The minimal inhibitory concentration (MIC) in mcg/ml is defined as the lowest concentration of test compound that inhibited visible growth after 18 hours incubation at 35° C. Results are given in Table I, with the test compounds identified by the number of their hereinafter described examples.

[2] = system: Proteus rettgeri CMC 84-41; settings: Providencia rettgeri, CMC8441, 18 h, 35° C., read-out: MIC
Protocol: as §1

[3] = system: Streptococcus faecalis ATTC 29212; settings: Enterococcus faecalis, ATTC29212, 18 hours, 35° C., read-out: MIC
Protocol: as §1

[4] = system: Enterobacter cloacae VGH 84-37; settings: Enterobacter cloacae, VGH8437, 18 h, 35° C., read-out: MIC
Protocol: as §1

[5] = system: Serratia marcescens F 0-35; settings: Serratia marcescens, F035, 18 h, 35° C., read-out: MIC
Protocol: as §1

[6] = system: Staphylococcus aureus Smith; settings: Staphylococcus aureus, 18 h, 35° C., read-out: MIC
Protocol: as §1

[7] = system: Escherichia coli NAR 311; settings: NAR311, 18 hours, 35° C., read-out: MIC
Protocol: as §1

[8] = system: Klebsiella oxytoca MOR 84-28; settings: MOR8428, 18 hours, 35° C.
Protocol: as §1

[9] = system: Escherichia coli ATCC 25922; settings: Escherichia coli, ATCC25922, 18 h, 35° C., read-out: MIC
Protocol: as §1

[10] = system: Pseudomonas aeruginosa VGH 84-4; settings: Pseudomonas aeruginosa, VGH844, 18 h, 35° C., read-out: MIC
Protocol: as §1

[11] = system: Escherichia coli CMC 84-16; settings: Escherichia coli, CMC8416, 18 h, 35° C., read-out: MIC
Protocol: as §1

[12] = system: Enterobacter cloacae K 84-10; settings: Enterobacter cloacae, K8410, 18 h, 35° C., read-out: MIC
Protocol: as §1

[13] = system: Staphylococcus epidermidis VGH 84-40; settings: VGH8440, 18 hours, 35° C., read-out: MIC
Protocol: as §1

[14] = system: Morganella morganii VGH 84-11; settings: VGH8411, 18 hours, 35° C., read-out: MIC
Protocol: as §1

[15] = system: Escherichia coli CMC 84-11; settings: Escherichia coli, CMC8411, 18 h, 35° C., read-out: MIC
Protocol: as §1

[16] = system: Klebsiella pneumoniae AD; settings: Klebsiella pneumoniae, 18 h, 35° C., read-out: MIC
Protocol: as §1

[17] = system: Staphylococcus aureus CMC 83-127; settings: Staphylococcus aureus, CMC83127, 18 h, 35° C., read-out: MIC
Protocol: as §1

[18] = system: Enterobacter aerogenes VGH 84-36; settings: Klebsiella aerogenes, VGH8436, 18 hours, 35° C., read-out: MIC
Protocol: as §1

[19] = system: Staphylococcus aureus VGH 84-45; settings: Staphylococcus aureus, VGH8445, 18 h, 35° C., read-out: MIC
Protocol: as §1

[20] = system: Streptococcus faecalis VGH 84-65; settings: Enterococcus faecalis, VGH8465, 18 h, 35° C., read-out: MIC
Protocol: as §1

[21] = system: Staphylococcus epidermidis IO 83-58; settings: IO8358, 18 hours, 35° C., read-out: MIC
Protocol: as §1

[22] = system: Pseudomonas aeruginosa LL-1244; settings: Pseudomonas aeruginosa, LL1244, 18 h, 35° C., read-out: MIC
Protocol: as §1

[23] = system: Staphylococcus aureus VGH 84-46; settings: Staphylococcus aureus, VGH8446, 18 h, 35° C., read-out: MIC
Protocol: as §1

[24] = system: Staphylococcus aureus ATTC 29213; settings: Staphylococcus aureus, ATTC29213, 18 h, 35° C., read-out: MIC
Protocol: as §1

[25] = system: Escherichia coli PRNT 311; settings: PRNT311, 18 hours, 35° C., read-out: MIC
Protocol: as §1

[26] = system: Staphylococcus epidermidis CMC 83-135; settings: CMC83135, 18 hours, 35° C., read-out: MIC
Protocol: as §1

[27] = system: Staphylococcus Spp saprophiticus VGH 84-50; settings: 18 hours, 35° C., read-out: MIC
Protocol: as §1

[28] = system: Morganella morganii CMC 84-37; settings: Morganella morganii, CMC8437, 18 h, 35° C., read-out: MIC
Protocol: as §1

[29] = system: Serratia marcescens K 84-18; settings: Serratia marcescens, K8418, 18 h, 35° C., read-out: MIC
Protocol: as §1

[30] = system: Staphylococcus aureus CMC 83-128; settings: CMC83128, 18 hours, 35° C., read-out: MIC
Protocol: as §1

[31] = system: Escherichia coli LL 311; settings: Escherichia coli, LL311, 18 h, 35° C., read-out: MIC
Protocol: as §1

[32] = system: Streptococcus faecalis UCI 85-19; settings: Enterococcus faecalis, UCI8519, 18 h, 35° C., read-out: MIC
Protocol: as §1

[33] = system: Serratia marcescens VGH 84-30; settings: Serratia marcescens, VGH8430, 18 h, 35° C., read-out: MIC
Protocol: as §1

MIC [1] [µg/mL]	MIC [2] [µg/mL]	MIC [3] [µg/mL]	MIC [4] [µg/mL]	MIC [5] [µg/mL]	MIC [6] [µg/mL]	MIC [7] [µg/mL]	MIC [8] [µg/mL]	MIC [9] [µg/mL]	MIC [10] [µg/mL]	MIC [11] [µg/mL]	MIC [12] [µg/mL]	MIC [13] [µg/mL]	MIC [15] [µg/mL]	MIC [19] [µg/mL]	MIC [20] [µg/mL]	MIC [22] [µg/mL]	MIC [24] [µg/mL]	MIC [28] [µg/mL]	MIC [29] [µg/mL]	SMILES	further results
4 (≈ 9.23 µM)	8 (≈ 18.5 µM)	8 (≈ 18.5 µM)	4 (≈ 9.23 µM)	8 (≈ 18.5 µM)	2 (≈ 4.61 µM)	32 (≈ 73.8 µM)	8 (≈ 18.5 µM)	2 (≈ 4.61 µM)	128 (≈ 295 µM)	2 (≈ 4.61 µM)	4 (≈ 9.23 µM)	0.25 (≈ 0.577 µM)	2 (≈ 4.61 µM)	0.5 (≈ 1.15 µM)	8 (≈ 18.5 µM)	> 256	1 (≈ 2.31 µM)	4 (≈ 9.23 µM)	16 (≈ 36.9 µM)	CCCCCCOCC1CN(c2cc3c(cc2F)c(=O)c(C(=O)O)cn3CC)CCN1 (centres unmarked) [Example 77, 1-Ethyl-6-fluoro-7-[3-[(hexyloxy)methyl]-1-piperazinyl]-1,4-dihydro-4-oxo-3-quinolinecarboxylic acid]	MIC [14]: 4 µg/mL (≈ 9.23 µM); MIC [16]: 4 µg/mL (≈ 9.23 µM); MIC [17]: 0.25 µg/mL (≈ 0.577 µM); MIC [18]: 4 µg/mL (≈ 9.23 µM); MIC [21]: 1 µg/mL (≈ 2.31 µM); MIC [23]: 0.5 µg/mL (≈ 1.15 µM); MIC [25]: 2 µg/mL (≈ 4.61 µM); MIC [26]: 1 µg/mL (≈ 2.31 µM); MIC [27]: 2 µg/mL (≈ 4.61 µM); MIC [30]: 0.5 µg/mL (≈ 1.15 µM)
> 256	> 256	128 (≈ 247 µM)	> 256	> 256	128 (≈ 247 µM)	> 256	> 256	> 256	> 256	> 256	> 256	64 (≈ 124 µM)	> 256	128 (≈ 247 µM)	128 (≈ 247 µM)	> 256	128 (≈ 247 µM)	> 256	> 256	CCCCCCCCCCCCOCC1CN(c2cc3c(cc2F)c(=O)c(C(=O)O)cn3CC)CCN1 (centres unmarked) [Example 74, 7-[3-[(Dodecyloxy)methyl]-1-piperazinyl]-1-ethyl-6-fluoro-1,4-dihydro-4-oxo-3-quinolinecarboxylic acid]	MIC [14]: > 256 µg/mL; MIC [16]: > 256 µg/mL; MIC [17]: 32 µg/mL (≈ 61.8 µM); MIC [18]: > 256 µg/mL; MIC [21]: 128 µg/mL (≈ 247 µM); MIC [23]: 128 µg/mL (≈ 247 µM); MIC [25]: > 256 µg/mL; MIC [26]: 128 µg/mL (≈ 247 µM); MIC [27]: 64 µg/mL (≈ 124 µM); MIC [30]: 128 µg/mL (≈ 247 µM)
64 (≈ 143 µM)	64 (≈ 143 µM)	16 (≈ 35.8 µM)	64 (≈ 143 µM)	> 256	8 (≈ 17.9 µM)	256 (≈ 572 µM)	64 (≈ 143 µM)	32 (≈ 71.5 µM)	> 256	32 (≈ 71.5 µM)	64 (≈ 143 µM)	2 (≈ 4.47 µM)	32 (≈ 71.5 µM)	8 (≈ 17.9 µM)	16 (≈ 35.8 µM)	> 256	4 (≈ 8.94 µM)	32 (≈ 71.5 µM)	> 256	CCCCCCOCC1CN(c2cc3c(cc2F)c(=O)c(C(=O)O)cn3CC)CCN1C (centres unmarked) [Example 78, 1-Ethyl-6-fluoro-7-[3-[(hexyloxy)methyl]-4-methyl-1-piperazinyl]-1,4-dihydro-4-oxo-3-quinolinecarboxylic acid]	MIC [14]: 32 µg/mL (≈ 71.5 µM); MIC [16]: 64 µg/mL (≈ 143 µM); MIC [17]: 1 µg/mL (≈ 2.23 µM); MIC [18]: 64 µg/mL (≈ 143 µM); MIC [21]: 8 µg/mL (≈ 17.9 µM); MIC [23]: 4 µg/mL (≈ 8.94 µM); MIC [25]: 16 µg/mL (≈ 35.8 µM); MIC [26]: 4 µg/mL (≈ 8.94 µM); MIC [27]: 8 µg/mL (≈ 17.9 µM); MIC [30]: 4 µg/mL (≈ 8.94 µM)
	1 (≈ 2.03 µM)				0.25 (≈ 0.509 µM)			1 (≈ 2.03 µM)	32 (≈ 65.1 µM)				1 (≈ 2.03 µM)	0.25 (≈ 0.509 µM)	32 (≈ 65.1 µM)	> 128	1 (≈ 2.03 µM)	2 (≈ 4.07 µM)	32 (≈ 65.1 µM)	O=C(O)c1cn(-c2ccc(F)cc2)c2cc(N3CCNC(COc4ccccc4)C3)c(F)cc2c1=O (centres unmarked) [Example 84, 1-(4-Fluorophenvl)-6-fluoro-1,4-dihydro-4-oxo-7-[3-(phenoxymethyl)-1-piperazinyl]-3-quinolinecarboxylic acid]	MIC [31]: 1 µg/mL (≈ 2.03 µM); MIC [32]: 32 µg/mL (≈ 65.1 µM); MIC [33]: > 128 µg/mL
